Reference: patent publication US6663858B1, “In Vivo gene transfer using implanted retroviral producer cells” (The Regents of the University of California, priority 1991, dated 2003)
Converted amounts (≈) assume the structure as drawn. “And” between values parts separate entries of the source, which are not always exact repeats. Equal entries are not always repeated. “Also recorded” adds a separate entry of the source.

Experiments:
9 L brain tumors [1] = settings: no producer cell injections; Barba et al. 1993; cited from earlier work
9 L brain tumors [2] = assay: Long-term (90-day) survival of rats with 9 L brain tumors after HSV-TK producer cells and GCV; assay type: in vivo, Fischer 344 rats; settings: for treated animals surviving 90 days: both long-term trials combined, HSV-TK producer cells plus GCV
Method: (§1) Tumor Cell and Producer Cell Implantation. The 9 L cells were maintained in Dulbecco's modified Eagle's medium with 10% fetal bovine serum, penicillin G (100 units/ml), streptomycin sulfate (100 μg/ml). Brain tumors were established in adult female Fischer 344 rats which were housed and handled in accordance with National Institutes of Health guidelines.
(§2) In all studies tumors were implanted by an intracerebral injection of 2×10^5 tumor cells into the region of the right caudate nucleus (3 mm lateral, 1 mm anterior to bregma, 4 mm ventral) (Paxinos, G. & Watson, C. (1987) The Rat Brain in Stereotaxic Coordinates (University Press ***).
Two trials of long-term (90-day) survival were performed. In the first, producer cells (2×10^5), equal to the initial number of tumor cells implanted) were grafted into 3-day-old brain tumors. GCV treatments were started in 12 animals 7 days later (tumor day 10) and continued for 7 days; 8 animals received no GCV. In the second trial, 2×10^5 or 2×10^6 producer cells in 50 μl (representing 1× or 10× the number of injected tumor cells, respectively) were grafted into 3-day-old established brain tumors of 10 animals per group. GCV treatments started 7 days later and were administered for 14 days.
(§3) Long-term results were studied in 90-day survival studies with tumor volumes determined in long-term survivors. Stained brain sections were examined and tumor volumes were quantified by stereologic methods (Gundersen, H. J. G., Bagger, P. & Bendtsen, T. F. (1988) APMIS ***96, 857-881). Tumor volumes were compared by the Mann-Whitney U test. In long-term survival experiments (90 days), animals were observed daily and survival data were analyzed by Kaplan-Meier analysis with the Mantel-Cox statistic.

9 L tumor cells = assay: Repeat tumor challenge in long-term survivors; assay type: in vivo, Fischer 344 rats
Text: Repeat Tumor Challenge. Four animals with long-term tumor regression were studied with repeat tumor challenges 90 days after the initial tumor implantation. Animals underwent repeated intracerebral injections of 2×10^5 9 L tumor cells into the left caudate nucleus and injections of 1×10^6 9 L tumor cells into the right flank. Five normal, naive rats received identical injections of 9 L tumor cells. Animals were sacrificed and perfused 17 days later to determine resulting tumor volumes.

9 L brain tumors [3] = assay: Short-term (17 days) 9 L brain tumor volume after HSV-TK producer cell implantation and GCV; assay type: in vivo, Fischer 344 rats
Method: as §1, §2
Animals in short-term studies underwent a second surgery 3 days after tumor implantation, at which time retroviral producer cells (either 2×10^5 in 4 μl or 2×10^6 in 8 μl, representing an equal, number (1×) or 10 times (10×) the number of injected tumor cells, respectively) were implanted into the established brain tumors and allowed to grow with brain tumor cells for 7 days. Ten days after tumor implantation, subsets of animals were given 0.2 ml intraperitoneal injections of GCV (Syntex, Palo Alto, Calif.) 50 mg/kg once a day for 7 or 14 days. Animals in the short-term experiments were sacrificed after 7 days of GCV administration (17 days after tumor implantation) and then perfused with 4% paraformaldehyde.
Brain Tumor Analysis. Short-term treatment response was determined by comparing individual brain tumor volumes measured by postmortem stereologic study in groups containing a minimum of five animals.
as §3

cells carrying HSV-TK = assay: 3-day cytotoxicity assay, cells carrying HSV-TK; assay type: cell-based; settings: 72 h, read-out: inhibitory dose for 50% of the cells
Method: (§4) Similar results were obtained in a 3-day cytotoxicity assay; the inhibitory dose of acyclovir for 50% of the cells lacking the HSV-TK gene was greater than […] for cells carrying HSV-TK.

[4] = system: cells lacking the HSV-TK gene; assay: 3-day cytotoxicity assay, cells lacking the HSV-TK gene; assay type: cell-based; settings: 72 h, read-out: inhibitory dose for 50% of the cells
Method: as §4

[5] = system: C6 glial tumor cells infected with STK, NTK or μTK vector; assay: Survival of C6 glioma clones carrying HSV-TK vectors in increasing concentrations of acyclovir; assay type: cell-based; settings: C6 clones infected with each vector (STK, NTK, μTK); acyclovir 0.1 to 100 μg/ml for 3 days
Method: Murine retroviral vectors carrying the HSV-TK gene, the STK, NTK, and μTK vectors, were obtained from Dr. F. L. Moolten. The plasmid forms of the vectors were transfected into −2 cells (Mann et al., Cell 33:153-159 (1983)); selection with 1 mg/ml of the neomycin analog G418 permitted the isolation of clone producer lines that yielded viruses capable of transducing G418 resistance and HSV-TK activity. Virus titers were determined by the limiting dilution method and found to be greater than 50 pfu/cell. As expected with −2 cells, no replication-competent virus was detected.
The replicative defective viruses produced by −2 cells were used to infect C6 glial tumor cells. The cells to be infected were grown in DME plus 10% fetal bovine serum plus 4 μg/ml of polybrene and were grown to about 60-70% confluence in a T75 flask or about 2×10^6 cells/ml. The cells were infected with about 100 pfu/cell of virus. The infected cells were cultured for 24 hours with Dulbecco's Medium containing 10% fetal bovine serum and antibiotics; afterwards they were exposed to 1 mg of G418/ml to select for cells that expressed vector-derived genes.
Clones resulting from infection of C6 glial cells with each of the vectors were exposed to acyclovir at concentrations ranging from 0.1 to 100 μg/ml for 3 days. Each vector rendered the glial cells sensitive to acyclovir.

[6] = HSV-TK producer cells plus GCV, 17-day-old tumors

Structure (SMILES) | tumor regression in animals treated with GCV without producer cell injections (9 L brain tumors [1]) | animals alive after 90 days in each experimental group, second trial (9 L brain tumors [2]; 1× or 10× producer cells, 10 animals per group, GCV for 14 days) | treated animals surviving 90 days, first trial (9 L brain tumors [2]; 2×10^5 producer cells, GCV for 7 days from tumor day 10, none of 8 untreated survived longer than 25 days) | tumor volume in the third surviving treated animal, first trial (9 L brain tumors [2]; 90 days) [mm^3] | residual tumor volume in two of the surviving treated animals, first trial (9 L brain tumors [2]; 90 days, small intracerebral cysts) [mm^3] | survival, GCV for 7 versus 14 days (9 L brain tumors [2]; both groups receiving 1× producer cells) | survival, 1× versus 10× producer cells (9 L brain tumors [2]; both groups receiving GCV for 14 days) | treated animals surviving 90 days (9 L brain tumors [2]) [%] | treated animals surviving 90 days (9 L brain tumors [2]; controls 0/8) | survival of treated versus control animals (9 L brain tumors [2]; combined treated groups, Kaplan-Meier, P<0.002) | flank tumor nodules after repeat challenge (9 L tumor cells; 1×10^6 9 L cells into right flank, 17 days, flank tumors in four of five naive rats) | tumor volume at the site of the secondary tumor cell implants (left hemisphere) (9 L tumor cells; 2×10^5 9 L cells, 17 days after repeat challenge, naive animals 129-169) [mm^3] | tumor volume at the site of the initial tumor cell implantation in long-term survivors (9 L tumor cells; four long-term survivors of second trial, 17 days after repeat challenge) | growth of repeat tumor injections in rats surviving 90 days (9 L tumor cells; repeat 9 L injections after HSV-TK producer cells and GCV, tumors grew in naive rats) | tumor volume / tumor regression versus rats not treated with GCV (9 L brain tumors [3]; HSV-TK producer cells (1:1 or 10:1) implanted day 3, GCV 50 mg/kg per day i.p. for 7 days, day 17) | treated animals with focal regression of part of the tumor adjacent to unaffected tumor (9 L brain tumors [3]; [6]) | treated animals with unaffected tumors (9 L brain tumors [3]; [6]) | IC50 (cells carrying HSV-TK) [µg/mL] | IC50 [4] [µg/mL] | sensitivity of glial cells to acyclovir (survival, FIG. 2) [5]
Nc1nc2c(ncn2COC(CO)CO)c(=O)[nH]1 [GCV, 9-((2-hydroxy-1-(hydroxymethyl)ethoxy)methyl) guanine] | not seen | two | 3 of 12 | 62 | < 0.2 | no difference | No difference in survival | 22 | 7 of 32 and 7/32 | highly significant difference; also recorded: significant improvement in survival | failed to detect any tumor nodules | < 0.2 | 0.6-2.0 mm^3 | rejected repeat tumor injections; also recorded: absence of growth of injected tumor cells; also recorded: inhibition of growth of the injected tumor cells | Significant tumor regression; also recorded: significantly smaller | about 50% | about 10% |  |  | 
Nc1nc2c(ncn2COCCO)c(=O)[nH]1 [acyclovir, 9-((2-hydroxyethoxy)methyl)guanine] |  |  |  |  |  |  |  |  |  |  |  |  |  |  |  |  |  | 0.5 (≈ 2.22 µM) | > 10 | sensitive
